Entries after “also recorded” stand apart in the source; their conditions may differ.

Data set [1] relates to large cholangiocytes. Kind of data set: PCNA expression and PKA, ERK1/2 phosphorylation (immunoblots) in purified large cholangiocytes from treated BDL rats. Type of data set: in vivo, rat. How it is done: Cholangiocyte proliferation was evaluated by immunoblots (Francis et al., 2008) by determination of PCNA protein expression (measured as ratio to b-actin protein expression) (Francis et al., 2008), and the phosphorylation of cAMP-dependent PKA and ERK1/2 (expressed as ratio to protein expression of the corresponding total proteins) in protein ([…]) from whole cell lysate from spleen (positive control) and large cholangiocytes from BDL rats treated with vehicle or melatonin. The intensity of the bands was determined by scanning video densitometry using the phospho-imager Storm 860 and the ImageQuant TL software version 2003.02 (GE Healthcare).

Data set [2] has as its system CCA. Kind of data set: Sensitization of CCA to 5-fluorouracil and gemcitabine cytotoxicity in vitro. Type of data set: cell-based.
The test system of data set [3] is Mz-ChA-1 cells. In words: Mz-ChA-1 cholangiocarcinoma xenograft in nude mice: tumor size and immunohistochemistry of tumor sections. Type of data set: in vivo, nude (nu/nu) mice. As for the experimental part:
AANAT expression was assessed in liver biopsy samples from CCA patients and controls by immunohistochemistry, and in non-malignant cholangiocytes and intra- and extrahepatic CCA lines by qPCR and immunoblots. Melatonin secretion was assessed in the supernatant of normal and CCA lines, and serum and bile from controls and CCA patients by EIA. In the CCA line Mz-ChA-1 stably overexpressing AANAT, the expression of AANAT, melatonin secretion, and CCA proliferation were studied after 48 hr of incubation. In in vivo studies, Mz-ChA-1 cells were injected Sub Q into the hind flanks of nu/nu mice. Tumors were allowed to develop and volumes were measured for 41 days during treatment with saline or melatonin (4 mg/kg BW, IP 3×wk). Tumors were analyzed for AANAT, PCNA, CK-19 and Bax by qPCR and immunoblots. Tumor tissue sections were analyzed for TUNEL, and staining for AANAT, PCNA and CK-19.
Experiments were performed to evaluate the in vivo effect of melatonin on the growth of cholangiocarcinoma cell lines implanted in the flanks of athymic mice (Francis H et al., 2009). Male BALB/c 6-wk-old nude (nu/nu) mice (Taconic Farms. Hudson, N.Y.) were kept in a temperature-controlled environment (20-22° C.) with 12-hr light-dark cycles, fed ad libitum standard mouse chow, and with free access to drinking water. Mz-ChA-1 cells (5×10^6) were suspended in 0.2 ml of extracellular matrix gel and injected subcutaneously in the rear flanks of the nude mice. After the establishment of the tumor (one week with a tumor size of ˜5 mm^3) mice (n=4) were treated with vehicle (5% ethanol in water) or melatonin (4 mg/kg BW, dissolved in 5% aqueous ethanol solution) (Sewerynek et al., 1995) by IP injections three times a week. Tumor variables were measured three times a week by an electronic caliper, and volume was determined as follows: tumor volume (mm^3)=0.5×[length (mm)×width (mm)×height (mm)]. The measurements started from the first week when the tumor mass was established. After 43 days of treatment, were anesthetized with sodium pentobarbital (50 mg/kg BW IP) and tumor tissues were harvested from the flanks of the mice. Heart, liver, and kidney tissues were collected for evaluation of organ damage by H&E staining of paraffin-embedded sections ([…]). All experiments were conducted under the guidelines of the Scott & White and Texas A&M HSC IACUC Committee. Tumors were allowed to grow until maximum allowable tumor burden was reached as set forth by the Scott & White and Texas A&M HSC IACUC tumor burden policy. Tumor tissues were fixed for 4 hr in 10% buffered formalin and embedded in low-temperature fusion paraffin. Subsequently, sections (4-5 mm) were stained: (i) with H & E for evaluation of necrosis (Francis et al., 2009); and (ii) for PCNA (a marker of proliferation) (Francis et al., 2009), cleaved caspase-3 (for measurement of apoptosis) (Arai et al., 2005), AANAT, ASMT, melatonin, MT1 and MT2 by immunohistochemistry (Francis et al., 2009). Negative controls were obtained by staining the tumor sections with non-immune serum with the omission of the primary antibody. Semiquantitative analysis for these markers was evaluated by image-analysis software, Image-Pro Plus (Media Cybernetics, Silver Springs, Md.) (Lejeune et al., 2008). Three randomly chosen fields were calculated for statistics.

Data set [4] is described as follows: Serum transaminases (SGPT, SGOT) and total bilirubin in normal and BDL rats. It counts as in vivo, rat. Particulars: tap water containing melatonin (20 mg/L) for 1 week. How it is done:
Male 344 Fischer rats (150-175 g) were purchased from Charles River (Wilmington, Mass.) and kept in a temperature-controlled environment (22° C.) with 12:12 hr light/dark cycles. Animals were fed ad libitum and had free access to food and drinking water. […] Before each surgical procedure, animals were anesthetized with sodium pentobarbital (50 mg/kg BW, IP). All animal experiments were performed in accordance with a protocol approved by the Scott and White and Texas A&M Health Science Center Institutional Animal Care and Use Committee and conform to the Guide for the Care and Use of Laboratory Animals published by the US National Institutes of Health (NIH Publication No. 85-23, revised 1996). In all animals, wet liver weight, body weight, wet liver weight to body weight ratio, and an index of liver cell growth including cholangiocytes were measured ([…] et al., 1988). In the selected groups of animals, the serum levels of the transaminases, serum glutamate pyruvate transaminases (SGPT) and serum glutamic oxaloacetic transaminase (SGOT) and total bilirubin were evaluated using a Dimension RxL Max Integrated Chemistry system (Dade Behring Inc., Deerfield Ill.) by the Chemistry Department, Scott & White. Melatonin serum levels were measured by commercially available ELISA kits according to the instructions provided by the vendor (Genway, San Diego, Calif.).

[5] abbreviates: tumor sections, semiquantitative immunohistochemistry.

For the molecule `COc1ccc2[nH]cc(CCNC(C)=O)c2c1` [melatonin], the “PCNA expression in large cholangiocytes” value in data set [1] (melatonin-treated BDL rats vs. BDL control rats) is “decreased”. In addition, the “Phosphorylation of cAMP-dependent PKA and ERK2 (but not ERK1) in large cholangiocytes” value in data set [1] (melatonin-treated BDL rats vs. BDL controls) is reported as “decreased”. For the same molecule, in data set [2], the “Sensitization of CCA to the cytotoxic effects of 5-fluorouracil (5-FU)” value was approximately 2 fold and the “Sensitization of CCA to the cytotoxic effects of gemcitabine” value is listed as approximately 2 fold. Also, in data set [3] (nude mice, melatonin 4 mg/kg BW IP three times a week vs. vehicle), the “Tumor size / xenograft tumor growth” value was “significant decrease; also recorded: significantly reduced”. In addition, in data set [3] (tumor sections, H&E, 4 mg/kg BW IP three times a week), the “Necrosis (percentage of the whole field of section)” value was more than 75%^ψ. In addition, in data set [3] (setting [5]), the AANAT was 1584.52 ± 127, the ASMT was found to be 46051.09 ± 13063.04, the “Cleaved caspase-3” value is given as 4490.66 ± 1053.52 and the MT1 is recorded as 1847.76 ± 419.9. Moreover, in data set [3] (setting [5]), the MT2 was 1417.96 ± 425.71, the “Melatonin (immunoreactivity)” value is 41231.48 ± 7634.43 and the PCNA was 0.25 ± 0.09 (% of total % of total nucleus. Besides, in data set [4] (BDL rats), the SGOT is on record as 585.0 ± 162.4 Units/L, the SGPT amounted to 210.8 ± 45.9 Units/L and the Total bilirubin turned out to be 7.3 ± 1.9 mg/L. In data set [4] (normal rats), this molecule registered an SGOT of 143.0 ± 36.0 Units/L, an SGPT of 69.4 ± 45.9 Units/L and a Total bilirubin of less than 0.1 mg/L.

These data come from US9468670B2, “Melatonin-based treatment and diagnosis of bile duct disease” (Texas A&M University System, priority 2011, dated 2016).
